Assays:
[1] = test system: IGROV1 CR cells; test: Viability of IGROV1 CR cells treated with compound alone (SRB); type: cell-based; conditions: 48 hrs
Experimental: Cel l proliferation was determined by SR B assay. (B) Viability of IG ROV 1 CR cells treated by indicated compounds fo r 48 hrs. SRB assay wa s used to determine cell viabil ity. […]
1. Antibodies and re a ge nt s […]
[…] Momordin Ic ( A14773; Adooq Biosc ience) was dissolved in DMSO. Ursolic acid (A10961; Adooq Bioscience) wa s dissolved in DMSO. Collection of Mc natural compound an alogs were pu rch ase d fro m Sigma. Detailed proced ure to sy nt h e s ize UA derivatives was in c lu d ed in suppleme ntal material and methods.
2. Cell culture and resistance cell line establishment […]
were cultured at 37 °C in DM EM with 10% Fe ta l Bovine Serum (F BS). All th e cells were cultured at in a humidified incubator with 5% CO2 atmo s phe re.
3. In vitro SUMOylation and de‐SU MOylation assays
The SUMO yl ation re ac tions were performed according to th e manufacture’s instruction (BML‐UW8955‐ 0001; ENZO) and were described previously (1) . Briefly, 200 nM of purified HIS‐JAK 2 wa s mixed wit h reco mbinant SUMOs in reac ti on bu ffer (20 μl) containing Mg‐ AT P, SUMO E1, and SUMO E2, followed by incubation at 37°C fo r 60 min. […]
Cell viability was detected using Sulforhodamine B (SRB) assay as described previously (3).
Absorbance at 51 0 nm was detected using a SpectraMax Re a d e r (Molecular Devices) and an alyzed with SoftMax Analys is Software (Molecular Devices). […]

[2] = test system: IGROV1 CR cells; test: Drug synergy screening: SRB proliferation assay with 2 μM cisplatin; type: cell-based
Experimental: (A) Collection of Momordin Ic (Mc) natural compound analogues. […] Cell proliferation was determined by the sulforhodamine B (SRB) assay. […] IGROV1 CR cells were incubated with Mc at indicated concentrations for 48 h and then harvested for Western blot for indicated proteins. […] IGROV1 CR cells were incubated with UA and then treated as in C. […] Intensity of SUMOylated JAK2 was measured by Quantity One software. […] Recombinant His‐JAK2 was SUMOylated by in vitro SUMOylation assay, and then SUMOylated JAK2 proteins were incubated with or without recombinant GST‐SENP1 together with Mc for 3 h. […] In vitro assay was performed as in (F). […]

Row | SMILES | toxicity to cells of compound alone [1] | IC50 of UA derivatives to inhibit resistant cells together with cisplatin (in words) [2]
1 | C[C@H]1[C@H](C)CC[C@]2(C(=O)OCC(=O)NCCO)CC[C@]3(C)C(=CC[C@@H]4[C@@]5(C)CC[C@H](O)C(C)(C)[C@@H]5CC[C@]43C)[C@H]12 [UAMMC5] | higher toxicity | lower IC50
2 | C[C@H]1[C@H](C)CC[C@]2(C(=O)OCCNC(=O)OC(C)(C)C)CC[C@]3(C)C(=CC[C@@H]4[C@@]5(C)CC[C@H](O)C(C)(C)[C@@H]5CC[C@]43C)[C@H]12 [UAMMC3] | higher toxicity | lower IC50

Source: paper PMC8710297, “Identification of potent SENP1 inhibitors that inactivate SENP1/JAK2/STAT signaling pathway and overcome platinum drug resistance in ovarian cancer” (Clinical and Translational Medicine, 2021)
